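Following 48 hours of exposure in 96-well plates, responses at five concentrations were used to interpolate endpoints linearly. TGI: total growth inhibition.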

For one experiment, the system named is U251 CNS. Description: NCI tumour cell line growth inhibition, 48 h.
`CCOC(=O)c1cn2c(nc1=O)N[C@H]1CCCC[C@@H]12` displayed a TGI above 100 µM.
The same measure, in the same setting: the figure for `CC1=NS(=O)(=O)c2ccccc2N1` is above 100 µM; for `O=[N+]([O-])c1ccc(Oc2c(Cl)cc(S(=O)(=O)/N=C(\NO)Nc3ccc(Cl)cc3)cc2Cl)cc1` it is 25.7 µM; for `COP(=O)(/C=C/c1cc(C(=O)OCc2ccccc2)n(S(=O)(=O)c2ccccc2)c1)OC` it is above 100 µM.
Take `CSC(=S)N/N=C(\C)c1ccc(S(=O)(=O)N(C)c2ccccc2)cc1`: the TGI was above 100 µM.

The next experiment relates to TK-10 renal. Nature of the experiment: NCI tumour cell line growth inhibition, 48 h.
For `Cc1cc2c3c(nc4ccccc42)C(=O)c2ccccc2-c3n1`, the TGI is above 100 µM.
The same measure, in the same setting: then `CCOC(=O)c1nc2c(nc1C(=O)OCC)C(=O)c1ccccc1C2=O`, with 8.83 µM; and `C=CCSc1nnc2cc(CN3CCCC3)c(-c3ccc(Cl)cc3)nn12`, with 43.7 µM.
The same measure, in the same setting: the figure for `Cc1cn(C2CC(O)C(CO)O2)c(=O)[nH]c1=O` (stereo not given) is above 5000 µM; for `O=c1[nH]c(Nc2nc3ccccc3[nH]2)nc(O)c1-c1ccccc1` it is above 100 µM; for `CCOC(=O)c1cn2c(nc1=O)N[C@H]1CCCC[C@@H]12` it is above 100 µM.
For `CC1=NS(=O)(=O)c2ccccc2N1`, the TGI is above 100 µM.
The compound `O=[N+]([O-])c1ccc(Oc2c(Cl)cc(S(=O)(=O)/N=C(\NO)Nc3ccc(Cl)cc3)cc2Cl)cc1` gave a TGI of 23.2 µM.
On the same count and under the same terms, the figure for `COP(=O)(/C=C/c1cc(C(=O)OCc2ccccc2)n(S(=O)(=O)c2ccccc2)c1)OC` is above 100 µM.
`CSC(=S)N/N=C(\C)c1ccc(S(=O)(=O)N(C)c2ccccc2)cc1` showed a TGI above 100 µM.

A further experiment concerns A498 renal. Nature of the experiment: NCI tumour cell line growth inhibition, 48 h.
`Cc1cc2c3c(nc4ccccc42)C(=O)c2ccccc2-c3n1` returned a TGI of 42.3 µM.
Same read-out and setting: the figure for `CCOC(=O)c1nc2c(nc1C(=O)OCC)C(=O)c1ccccc1C2=O` is 4.38 µM.
Same read-out and setting: the figure for `C=CCSc1nnc2cc(CN3CCCC3)c(-c3ccc(Cl)cc3)nn12` is 35.9 µM.
On the same count and under the same terms, the figure for `Cc1cn(C2CC(O)C(CO)O2)c(=O)[nH]c1=O` (stereo not given) is above 5000 µM; for `O=c1[nH]c(Nc2nc3ccccc3[nH]2)nc(O)c1-c1ccccc1` it is above 100 µM.
On to `CCOC(=O)c1cn2c(nc1=O)N[C@H]1CCCC[C@@H]12`, for which the TGI is above 100 µM.
The same measure, in the same setting: then `CC1=NS(=O)(=O)c2ccccc2N1`, with above 100 µM.
The same measure, in the same setting: the figure for `O=[N+]([O-])c1ccc(Oc2c(Cl)cc(S(=O)(=O)/N=C(\NO)Nc3ccc(Cl)cc3)cc2Cl)cc1` is 23.3 µM.
In turn, `COP(=O)(/C=C/c1cc(C(=O)OCc2ccccc2)n(S(=O)(=O)c2ccccc2)c1)OC` displayed a TGI above 100 µM.
The same measure, in the same setting: then `CSC(=S)N/N=C(\C)c1ccc(S(=O)(=O)N(C)c2ccccc2)cc1`, with above 100 µM.

Another experiment relates to SK-MEL-2 melanoma. Description: NCI tumour cell line growth inhibition, 48 h.
`Cc1cc2c3c(nc4ccccc42)C(=O)c2ccccc2-c3n1` returned a TGI of 47.8 µM.
The same measure, in the same setting: the figure for `CCOC(=O)c1nc2c(nc1C(=O)OCC)C(=O)c1ccccc1C2=O` is 1.5 µM.
In the case of `C=CCSc1nnc2cc(CN3CCCC3)c(-c3ccc(Cl)cc3)nn12`, the TGI came to 34.5 µM.
Consider `Cc1cn(C2CC(O)C(CO)O2)c(=O)[nH]c1=O` (stereo not given), for which the TGI was above 5000 µM.
On the same count and under the same terms, the figure for `O=c1[nH]c(Nc2nc3ccccc3[nH]2)nc(O)c1-c1ccccc1` is above 100 µM; for `CCOC(=O)c1cn2c(nc1=O)N[C@H]1CCCC[C@@H]12` it is above 100 µM; for `CC1=NS(=O)(=O)c2ccccc2N1` it is above 100 µM.
Same read-out and setting: the figure for `O=[N+]([O-])c1ccc(Oc2c(Cl)cc(S(=O)(=O)/N=C(\NO)Nc3ccc(Cl)cc3)cc2Cl)cc1` is 24.1 µM; for `COP(=O)(/C=C/c1cc(C(=O)OCc2ccccc2)n(S(=O)(=O)c2ccccc2)c1)OC` it is above 100 µM.
The same measure, in the same setting: the figure for `CSC(=S)N/N=C(\C)c1ccc(S(=O)(=O)N(C)c2ccccc2)cc1` is above 100 µM.

The next experiment relates to OVCAR-8 ovarian. Nature of the experiment: NCI tumour cell line growth inhibition, 48 h.
`Cc1cc2c3c(nc4ccccc42)C(=O)c2ccccc2-c3n1`: the TGI turned out to be 34.8 µM.
Still for that read-out and setting: the figure for `CCOC(=O)c1nc2c(nc1C(=O)OCC)C(=O)c1ccccc1C2=O` is 6.56 µM; for `C=CCSc1nnc2cc(CN3CCCC3)c(-c3ccc(Cl)cc3)nn12` it is 57.1 µM.
On the same count and under the same terms, then `Cc1cn(C2CC(O)C(CO)O2)c(=O)[nH]c1=O` (stereo not given), with 4960 µM.
Same read-out and setting: then `O=c1[nH]c(Nc2nc3ccccc3[nH]2)nc(O)c1-c1ccccc1`, with above 100 µM; and `CCOC(=O)c1cn2c(nc1=O)N[C@H]1CCCC[C@@H]12`, with above 100 µM.
As to `CC1=NS(=O)(=O)c2ccccc2N1`, the TGI is above 100 µM.
Same read-out and setting: then `O=[N+]([O-])c1ccc(Oc2c(Cl)cc(S(=O)(=O)/N=C(\NO)Nc3ccc(Cl)cc3)cc2Cl)cc1`, with 27.5 µM; and `COP(=O)(/C=C/c1cc(C(=O)OCc2ccccc2)n(S(=O)(=O)c2ccccc2)c1)OC`, with above 100 µM.
The same measure, in the same setting: the figure for `CSC(=S)N/N=C(\C)c1ccc(S(=O)(=O)N(C)c2ccccc2)cc1` is above 100 µM.

The test system of another experiment is 786-0 renal. Description: NCI tumour cell line growth inhibition, 48 h.
Regarding `Cc1cc2c3c(nc4ccccc42)C(=O)c2ccccc2-c3n1`, the TGI was above 100 µM.
`CCOC(=O)c1nc2c(nc1C(=O)OCC)C(=O)c1ccccc1C2=O` displayed a TGI of 6.33 µM.
Still for that read-out and setting: then `C=CCSc1nnc2cc(CN3CCCC3)c(-c3ccc(Cl)cc3)nn12`, with 33.7 µM; and `Cc1cn(C2CC(O)C(CO)O2)c(=O)[nH]c1=O` (stereo not given), with above 5000 µM.
For `O=c1[nH]c(Nc2nc3ccccc3[nH]2)nc(O)c1-c1ccccc1`, the TGI is above 100 µM.
As to `CCOC(=O)c1cn2c(nc1=O)N[C@H]1CCCC[C@@H]12`, the TGI was above 100 µM.
`CC1=NS(=O)(=O)c2ccccc2N1` showed a TGI above 100 µM.
The same measure, in the same setting: the figure for `O=[N+]([O-])c1ccc(Oc2c(Cl)cc(S(=O)(=O)/N=C(\NO)Nc3ccc(Cl)cc3)cc2Cl)cc1` is 23.5 µM.
The same measure, in the same setting: the figure for `COP(=O)(/C=C/c1cc(C(=O)OCc2ccccc2)n(S(=O)(=O)c2ccccc2)c1)OC` is above 100 µM; for `CSC(=S)N/N=C(\C)c1ccc(S(=O)(=O)N(C)c2ccccc2)cc1` it is above 100 µM.
